Experimental data from the NIST ThermoML archive (doi:10.1021/acs.jced.5b00447).

Assay: xn = mol fraction of the nth substance listed
Conditions: for surface tension liquid-gas: wilhelmi plate; for viscosity / speed of sound / mass density: 100 kPa, Liquid; for viscosity: Capillary tube (Ostwald / Ubbelohde) method; for speed of sound: Frequency=3 MHz, Sing-around technique in a fixed-path interferometer; for mass density: Vibrating tube method

CN(C)CCN [2-dimethylamino-1-ethylamine] + O
Conditions	mass density [kg/m3]	speed of sound [m/s]	surface tension liquid-gas [mN/m]	viscosity [mPa·s]
293.15 K, x1 = 0.1002	975	1773.4	42.6	6.83
293.15 K, x1 = 0.2	952	1708.6	37.1	12.66
293.15 K, x1 = 0.3002	920	1605.4	32.9	10.5
293.15 K, x1 = 0.3996	895	1517.2	30.6	6.463
293.15 K, x1 = 0.5035	874	1456.6	29.4	3.875
293.15 K, x1 = 0.5995	858	1419.2	28.6	2.743
293.15 K, x1 = 0.7007	844	1387.2	27.9	1.965
293.15 K, x1 = 0.8002	833	1349.8	27.4	1.464
293.15 K, x1 = 0.8999	825	1328	26.9	1.162
293.15 K, x1 = 1	819	1319.6	26.4	0.988
303.15 K, x1 = 0.1002	970	1743.6	41.9	4.28
303.15 K, x1 = 0.2	943	1672.8	36.3	7.355
303.15 K, x1 = 0.3002	912	1568.6	32.2	6.268
303.15 K, x1 = 0.3996	886	1480.2	29.8	4.148
303.15 K, x1 = 0.5035	865	1419.2	28.6	2.709
303.15 K, x1 = 0.5995	849	1381.6	27.8	2.013
303.15 K, x1 = 0.7007	835	1349	27.1	1.51
303.15 K, x1 = 0.8002	824	1305.2	26.6	1.161
303.15 K, x1 = 0.8999	816	1288.7	26.1	0.94
303.15 K, x1 = 1	810	1279.3	25.8	0.819
313.15 K, x1 = 0.1002	963	1712.8	41.3	2.891
313.15 K, x1 = 0.2	935	1636.1	35.2	4.689
313.15 K, x1 = 0.3002	901	1531.3	31.2	4.105
313.15 K, x1 = 0.3996	877	1443.1	28.9	2.884
313.15 K, x1 = 0.5035	856	1381.8	27.8	2.019
313.15 K, x1 = 0.5995	840	1343.3	27	1.552
313.15 K, x1 = 0.7007	826	1310.3	26.3	1.192
313.15 K, x1 = 0.8002	814	1266.2	25.8	0.937
313.15 K, x1 = 0.8999	806	1249.2	25.3	0.773
313.15 K, x1 = 1	801	1239	25.2	0.693
323.15 K, x1 = 0.1002	955	1682	40.4	2.069
323.15 K, x1 = 0.2	926	1598.4	34.3	3.179
323.15 K, x1 = 0.3002	893	1493.1	30.6	2.853
323.15 K, x1 = 0.3996	868	1411.3	27.9	2.105
323.15 K, x1 = 0.5035	847	1343.5	27.1	1.519
323.15 K, x1 = 0.5995	831	1305.1	26.4	1.201
323.15 K, x1 = 0.7007	817	1271.7	25.7	0.967
323.15 K, x1 = 0.8002	806	1227	25.2	0.804
323.15 K, x1 = 0.8999	797	1209.1	24.7	0.686
323.15 K, x1 = 1	791	1199.3	24.5	0.596
